System: Relapsing Experimental Autoimmune Encephalomyelitis (EAE)
Test: Relapsing Experimental Autoimmune Encephalomyelitis (EAE), vascular casts quantitated by micro computer tomography
Format: in vivo, female Lewis rats
Conditions: rat relapsing EAE
Excerpt: In Vivo: Relapsing Experimental Autoimmune Encephalomyelitis (EAE)
Disease is induced in female Lewis rats by immunization with guinea pig spinal cord tissue emulsified in complete Freund's adjuvant. […] On day 26 rats are thoracectomized after having been deeply anesthetized with Isoflurane (3%, 20 L/min) and perfused through the left ventricle of the heart. The left ventricle is punctured with a 19 gauge needle from a winged infusion set (SV-19BLK; Termudo, Elkton, Md.), which is connected to an airtight pressurized syringe containing the rinsing solution (NaCl 0.9% with 250,000 U/I heparin at 35° C.). The right atrium is punctured to provide outflow, and the perfusate is infused under a precise controlled pressure of 120 mm Hg. The perfusion is continued for 5 min (at a constant rate of 20 ml/min) followed by a pre-fixation solution (2% performaldehyde in PBS at 35° C.). Finally, up to 30 ml of polyurethane resin (PUII4; Vasqtec, Zürich, Switzerland) is infused at the same rate. After 48 h, the resin-filled brain and spinal cord are excised from the animal and the soft tissue removed by maceration in 7.5% KOH during 24 hr at 50° C. The casts are then thoroughly cleaned with and stored in distilled water before drying by lyophilization. These vascular casts are quantitated using micro computer tomography.

[1] = hydrochloride salt form, daily 0.3 mg/kg p.o.

## CCCCCCCCc1ccc(CCC(N)(CO)CO)cc1.Cl [Compound A, 2-amino-2-[2-(4-octylphenyl)ethyl]propane-1,3-diol]
Dose of from 0.1 to 20 mg/kg p.o.
  disease-associated neo-angiogenesis: significantly blocks
[1]
  disease-associated angiogenesis: fully blocks
  relapse phases: completely inhibits
Hydrochloride salt form, p.o. 0.3 mg/kg every 2nd or 3rd day or once a week
  effect on disease-associated angiogenesis and relapse phases, intermittent administration: The same effect is obtained
